Test results from article PMC2606939 (The Journal of General Physiology, 2009).

Key:
CLC-0 [1] = target: CLC-0 (Torpedo marmorata, UniProt P21564, E166A); experiment: cell-based
CLC-0 [2] = target: CLC-0 (Torpedo marmorata, UniProt P21564, E166G); experiment: cell-based
Chain of CLC-0 (Torpedo marmorata, UniProt P21564, E166G) (P21564 whole entry E166G): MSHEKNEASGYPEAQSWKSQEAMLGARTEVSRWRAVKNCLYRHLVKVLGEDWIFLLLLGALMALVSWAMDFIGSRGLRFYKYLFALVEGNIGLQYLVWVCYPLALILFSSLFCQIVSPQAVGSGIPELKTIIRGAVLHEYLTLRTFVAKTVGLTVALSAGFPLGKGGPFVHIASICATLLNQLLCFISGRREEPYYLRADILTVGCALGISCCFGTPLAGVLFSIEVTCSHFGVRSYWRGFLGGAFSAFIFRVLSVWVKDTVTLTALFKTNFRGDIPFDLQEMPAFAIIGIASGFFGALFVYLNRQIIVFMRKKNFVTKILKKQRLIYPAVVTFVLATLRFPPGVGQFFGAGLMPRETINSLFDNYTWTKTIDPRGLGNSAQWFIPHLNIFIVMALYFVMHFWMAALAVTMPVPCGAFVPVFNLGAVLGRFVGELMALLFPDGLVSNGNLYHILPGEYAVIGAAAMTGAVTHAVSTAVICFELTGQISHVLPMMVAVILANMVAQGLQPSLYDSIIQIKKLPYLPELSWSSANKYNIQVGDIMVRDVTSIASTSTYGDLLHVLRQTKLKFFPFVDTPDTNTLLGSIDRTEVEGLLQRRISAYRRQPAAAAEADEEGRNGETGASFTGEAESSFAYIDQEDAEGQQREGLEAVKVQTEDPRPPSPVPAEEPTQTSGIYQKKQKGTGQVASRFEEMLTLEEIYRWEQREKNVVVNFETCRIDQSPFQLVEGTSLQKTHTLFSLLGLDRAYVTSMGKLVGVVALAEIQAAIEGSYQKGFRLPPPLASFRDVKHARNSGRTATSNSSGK

Chain of CLC-0 (Torpedo marmorata, UniProt P21564, E166A) (P21564 whole entry E166A): as the sequence (P21564 whole entry E166G) above, with G166A counted along it

CCCCCCCC(=O)O [OA, octanoate]
IC50 (CLC-0 [1]): 120 ± 20 µM
IC50 (CLC-0 [2]): 160 ± 10 µM
